The values below come from patent US20230270810A1, “VETERINARY COMPOSITIONS FOR THE TREATMENT AND/OR PREVENTION OF PROTOZOAN DISEASES AND METHODS OF PREPARATION THEREOF” (ADIFEED SP. Z O. O., priority 2020, published 2023).

What is called pIC50 is −log10 of the IC50, conventionally taken in molar units. The IC50 is the concentration that gives 50% inhibition.

The structures appear in SMILES notation. pIC50: −log10 of the molar value.

One experiment has as its system Trypanosoma cruzi. As to conditions: read-out: inhibitory effect on 50% of the population (IC50); cited from earlier work.
Experiment [1] has as its system Trypanosoma cruzi and Leishmania chagasi. As to conditions: cited from earlier work.
The next experiment deals with Gregarina blattarum. The experiment in a line: in vitro protozoicidal test, LD50/LD100 within 3 minutes, gregarines isolated from cockroaches. The settings on record: in Ringer's solution. The experiment is classed as cell-based. An excerpt: For in vitro tests of antiprotozoal activity of the composition five reference organisms representing taxonomic groups to which pathogenic protozoa belong were selected, i.e: • Amoeba proteus—Chaos diffluens—a protozoan of the order Euamoebida, belonging to fifth supergroup of the Amoebozoa, living in waters. • Paramecium caudatum—a slipper animalcule representing the Ciliata orachs, living in waters. • Gregarina blattarum—gregarine isolated from cockroaches, representing the phylum Apicomplexa, living in the digestive tracts or body cavities of invertebrates. • Euglena gracilis—a protozoan living in water, representing the flagellates—Mastigophora, family Euglenaceae. • Trichomonas hominis—a protozoan living in the human colon, representing the Trichomonadidae.
The gregarines were isolated from the cockroaches and, after being placed on a watch slide, were treated with the products at different concentrations in Ringer's solution. Each sample contained ten individuals. […]
The mixture was heated at the boiling point, until the colour changed, under reflux for 20 minutes. […] Compositions I and II were then analysed for their antiprotozoal properties. […]
Individual acids, catalyst solution, essential oil and metal salt solutions were additionally analysed for protozoal properties. […] Observation under a fluorescence microscope with phase contrast was carried out.

For a further experiment, the system named is Amoeba proteus. The experiment in a line: in vitro protozoicidal test, LD50/LD100 within 3 minutes. Format: cell-based.
A further experiment deals with Trichomonas hominis. Described as above. The experiment is classed as cell-based.
Experiment [2] concerns Trypanosoma cruzi and different Leishmania species. As to conditions: cited from earlier work.
[3] abbreviates: death of 50% of individuals within 3 minutes.
The mark [4] stands for this setting: death of 100% of individuals within 3 minutes.

For `CC1CS(=O)(=O)CCN1/N=C/c1ccc([N+](=O)[O-])o1` (stereo not drawn) [Nifurtimox], the pIC50 with Trypanosoma cruzi is 5.22. Besides, the half-maximal inhibitory concentration (IC50) in experiment [1] is 0.3 to 0.4 µg/mL.

`Cc1ncc([N+](=O)[O-])n1CCO` [M, metronidazole]: the LD50 in the experiment on Gregarina blattarum (50% of individuals within 3 minutes) is recorded as 0.13%; with Amoeba proteus (setting [3]) it was 0.3%; in the experiment with Trichomonas hominis (setting [3]), 0.05%. For the same compound, the LD100 in the experiment with Gregarina blattarum (100% of individuals within 3 minutes) is given as 0.3%; in the experiment with Amoeba proteus (setting [4]) it was 0.5%; in the experiment with Trichomonas hominis (setting [4]) it was 0.1%.

On to `O=C(Cn1ccnc1[N+](=O)[O-])NCc1ccccc1` [benznidazole], for which, in experiment [2], the “values obtained (in vitro antiprotozoal activity)” value was 45.02 µg/mL.
